Assay results: ChEMBL document CHEMBL4400575, “PROTAC Molecules for the Treatment of Autoimmune Disorders” (ACS Med Chem Lett, 2019)

molecular target: Protein cereblon (Homo sapiens, UniProt Q96SW2); experiment: Displacement of (-)-thalidomide-alexa fluor/pomalidomide-fluorescein conjugated probe from […] fused CRBN (unknown origin) measured after 60 mins by fluorescence polarization assay
Sequence (Q96SW2 whole entry, the tested form may be a part): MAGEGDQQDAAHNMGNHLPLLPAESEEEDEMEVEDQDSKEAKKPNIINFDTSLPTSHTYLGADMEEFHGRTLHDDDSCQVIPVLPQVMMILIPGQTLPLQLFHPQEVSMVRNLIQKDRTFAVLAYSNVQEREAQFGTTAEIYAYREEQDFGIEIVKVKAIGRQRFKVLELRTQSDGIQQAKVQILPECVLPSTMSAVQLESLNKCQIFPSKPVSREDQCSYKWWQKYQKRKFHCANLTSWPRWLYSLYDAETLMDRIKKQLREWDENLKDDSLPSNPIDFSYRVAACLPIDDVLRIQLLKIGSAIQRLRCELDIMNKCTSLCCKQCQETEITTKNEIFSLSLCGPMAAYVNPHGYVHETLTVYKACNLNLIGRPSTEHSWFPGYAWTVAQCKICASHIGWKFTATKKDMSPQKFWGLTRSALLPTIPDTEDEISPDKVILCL

CC(C)(C)OC(=O)N1CCN(c2ccc(OC3CCC(=O)NC3=O)cc2)CC1 (stereo not drawn) and CN1CCN(c2ccc(NC3CCC(=O)NC3=O)cc2)CC1 (stereo not drawn) cannot be ordered by Kd: ≤ 10 µM for the first, ≤ 10 µM for the second.

CC(=O)CCc1ccc(OC2CCC(=O)NC2=O)cc1 (stereo not drawn) and N#Cc1ccc(-c2ccc(OC3CCC(=O)NC3=O)cc2)cc1 (stereo not drawn) cannot be ordered by Kd: ≤ 10 µM for the first, ≤ 10 µM for the second.

Cc1nnc2n1-c1ccc(-c3cnn(CCCCCCN4CCN(c5ccc(NC6CCC(=O)NC6=O)cc5)CC4)c3)cc1C(c1ccc(Cl)cc1)=NC21CC1 (stereo not drawn) and Cc1sc2c(c1C)C(c1ccc(Cl)cc1)=N[C@@H](CC(=O)NCCCCCCCCN1CCN(c3ccc(NC4CCC(=O)NC4=O)cc3)CC1)c1nnc(C)n1-2 (stereo partly drawn) cannot be ordered by Kd: ≤ 10 µM for the first, ≤ 10 µM for the second.

O=C1CCC(Nc2ccccc2N2CCOCC2)C(=O)N1 (stereo not drawn) and COc1cccc(N(C)C2CCC(=O)NC2=O)c1 (stereo not drawn) cannot be ordered by Kd: 10 to 50 µM for the first, ≤ 10 µM for the second.
